From PMC3170264 (Retrovirology, 2011)
Changes are numbered by the printed parent chain.

Columns and labels:
HIV-2 N1 IN = target: T1, HIV-2 N1 IN (Human immunodeficiency virus type 2 subtype B, UniProt Q89928, I1218V/I1301V/I1372V/M1455R/N1185G/N1438H/R1202K/R1392Q/T1348V/T1383A/V1460M); assay: strand transfer inhibition, IN from clinical isolate N1 (wild-type reference); format: biochemical; conditions: IN from RAL-naive patient N1; 200 nM IN; 37°C; Mg2+
T1 construct: His-tag (pET-15b) (N); made in house; host or cells: Escherichia coli BL21-CodonPlus (DE3)-RIPL
T1 sequence (Q89928 1169-1464 N1185G/R1202K/I1218V/I1301V/T1348V/I1372V/T1383A/R1392Q/N1438H/M1455R/V1460M limits assumed): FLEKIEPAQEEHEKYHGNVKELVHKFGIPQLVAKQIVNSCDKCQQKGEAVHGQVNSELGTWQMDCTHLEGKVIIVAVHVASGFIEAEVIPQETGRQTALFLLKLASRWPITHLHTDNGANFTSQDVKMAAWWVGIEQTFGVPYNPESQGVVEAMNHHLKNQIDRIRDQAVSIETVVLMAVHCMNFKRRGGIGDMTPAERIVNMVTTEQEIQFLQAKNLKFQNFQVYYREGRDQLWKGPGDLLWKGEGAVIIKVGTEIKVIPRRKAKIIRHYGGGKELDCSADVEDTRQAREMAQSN
Procedure: (§1) The ST reaction was performed using a ^32P-labeled oligonucleotide mimicking the preprocessed substrate. Drug concentrations are indicated above each lane. […] Activity is expressed as a % of control without drug. Experiments were repeated two times.
(§2) The HIV-2 ODN substrate sequences were: UA: 5'-[…]-3'; U5B: 5'-[…]-3'; U5B-2: 5'-[…] […]-3'.

HIV-2 N2 IN = target: T2, HIV-2 N2 IN (Human immunodeficiency virus type 2 subtype B, UniProt Q89928, I1301V/I1428V/M1455R/N1185G/N1438H/R1202K/R1392Q/T1348A/T1383N/V1343I/V1460M); assay: strand transfer inhibition, IN from clinical isolate N2; format: biochemical; conditions: IN from RAL-naive patient N2; 200 nM IN; 37°C; Mg2+
T2 construct: His-tag (pET-15b) (N); made in house; host or cells: Escherichia coli BL21-CodonPlus (DE3)-RIPL
T2 sequence (Q89928 1169-1464 N1185G/R1202K/I1301V/V1343I/T1348A/T1383N/R1392Q/I1428V/N1438H/M1455R/V1460M limits assumed): T1 sequence (Q89928 1169-1464 N1185G/R1202K/I1218V/I1301V/T1348V/I1372V/T1383A/R1392Q/N1438H/M1455R/V1460M limits assumed) with V50I, V175I, V180A, V204I, A215N, I260V
Procedure: as §1, §2

HIV-2 IN Q148R = target: T3, HIV-2 IN Q148R (Human immunodeficiency virus type 2 subtype B, UniProt Q89928, I1218V/I1301V/I1372V/M1455R/N1185G/N1438H/Q1316R/R1202K/R1392Q/T1348V/T1383A/V1460M); assay: susceptibility to RAL, site-directed mutant in N1 background; format: biochemical; conditions: preliminary studies with high protein concentrations
T3 construct: His-tag (pET-15b) (N); made in house; host or cells: Escherichia coli BL21-CodonPlus (DE3)-RIPL
T3 sequence (Q89928 with tags, fused parts or gaps N1185G/R1202K/I1218V/I1301V/Q1316R/T1348V/I1372V/T1383A/R1392Q/N1438H/M1455R/V1460M): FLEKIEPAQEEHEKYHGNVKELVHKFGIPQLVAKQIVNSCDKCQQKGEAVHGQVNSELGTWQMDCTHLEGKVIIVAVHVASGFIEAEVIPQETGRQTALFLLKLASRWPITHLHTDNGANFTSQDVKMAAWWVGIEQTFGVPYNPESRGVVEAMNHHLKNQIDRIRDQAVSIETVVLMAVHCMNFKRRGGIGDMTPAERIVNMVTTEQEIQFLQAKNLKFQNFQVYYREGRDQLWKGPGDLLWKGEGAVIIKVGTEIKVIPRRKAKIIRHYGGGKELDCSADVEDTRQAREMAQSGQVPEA
Text: (§3) Primer 1: N1, N2, T1, T2, 5'-[…]-3'; N3, 5'-[…] […]-3'; T3-T7, 5'-[…]-3'. Primers 2: N1, 5'-[…]-3'; N2, 5'-[…] […]-3'; N3, 5'-[…] C-3'; T1, T2, 5'-[…]-3'; T3-T7, 5'-GGATC […] -3'.
as §2

HIV-2 IN G140S = target: T4, HIV-2 IN G140S (Human immunodeficiency virus type 2 subtype B, UniProt Q89928, G1308S/I1218V/I1301V/I1372V/M1455R/N1185G/N1438H/R1202K/R1392Q/T1348V/T1383A/V1460M); assay: strand transfer inhibition, site-directed mutant in N1 background; format: biochemical; conditions: 200 nM IN
T4 construct: His-tag (pET-15b) (N); made in house; host or cells: Escherichia coli BL21-CodonPlus (DE3)-RIPL
T4 sequence (Q89928 with tags, fused parts or gaps N1185G/R1202K/I1218V/I1301V/G1308S/T1348V/I1372V/T1383A/R1392Q/N1438H/M1455R/V1460M): T3 sequence (Q89928 with tags, fused parts or gaps N1185G/R1202K/I1218V/I1301V/Q1316R/T1348V/I1372V/T1383A/R1392Q/N1438H/M1455R/V1460M) with G140S, R148Q
Procedure: (§4) Activity is expressed as a % of control without drug. Experiments were performed two times.
as §3, §2

HIV-2 IN Y143C/N155H = target: T5, HIV-2 IN Y143C/N155H (Human immunodeficiency virus type 2 subtype B, UniProt Q89928, I1218V/I1301V/I1372V/M1455R/N1185G/N1323H/N1438H/R1202K/R1392Q/T1348V/T1383A/V1460M/Y1311C); assay: as above; format: biochemical; conditions: Y143C/N155H double mutant in N1 background; 200 nM IN
T5 construct: His-tag (pET-15b) (N); made in house; host or cells: Escherichia coli BL21-CodonPlus (DE3)-RIPL
T5 sequence (Q89928 with tags, fused parts or gaps N1185G/R1202K/I1218V/I1301V/Y1311C/N1323H/T1348V/I1372V/T1383A/R1392Q/N1438H/M1455R/V1460M): T3 sequence (Q89928 with tags, fused parts or gaps N1185G/R1202K/I1218V/I1301V/Q1316R/T1348V/I1372V/T1383A/R1392Q/N1438H/M1455R/V1460M) with Y143C, R148Q, N155H
Procedure: as §4, §3, §2

wild-type HIV-2 = conditions: phenotypic susceptibility similar to that of HIV-1; cited from earlier work

With `Cc1nnc(C(=O)NC(C)(C)c2nc(C(=O)NCc3ccc(F)cc3)c(O)c(=O)n2C)o1` [RAL, raltegravir] the IC50 (HIV-2 N1 IN) was 23 nM, the IC50 (HIV-2 N2 IN) was 30 nM and the “susceptibility to RAL” value (HIV-2 IN Q148R) was “not susceptible”. The “susceptibility to RAL, strand transfer” value (HIV-2 IN G140S) was “as susceptible to RAL as the wild-type reference N1 enzyme”, the IC50 (HIV-2 IN Y143C/N155H) was 290 nM and the “activity against wild-type HIV-2” value (wild-type HIV-2) was “active”.
